Results as given in PubChem BioAssay (NCI).
Values joined by “and” are separate entries in the source; they are usually repeats but may differ in a detail not shown here. Identical values can stand only once.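 Grown in 96-well plates, cells were treated for 48 hours with each compound at five concentrations. Insufficient inhibition: endpoint recorded as highest concentration tested. GI50 is the concentration that inhibits growth by half. Definition used: TGI = concentration required for complete inhibition of growth.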

Key:
Experiment in all cases: NCI tumour cell line growth inhibition, 48 h
[1] = tested on: 786-0 renal
[2] = tested on: A498 renal
[3] = tested on: A549 NSCLC
[4] = tested on: ACHN renal
[5] = tested on: CCRF-CEM leukemia
[6] = tested on: COLO 205 colon
[7] = tested on: DLD-1 colon
[8] = tested on: DMS 114 small cell lung
[9] = tested on: DMS 273 small cell lung
[10] = tested on: EKVX NSCLC
[11] = tested on: HCC-2998 colon
[12] = tested on: HCT-15 colon
[13] = tested on: HL-60(TB) leukemia
[14] = tested on: HT29 colon
[15] = tested on: IGROV1 ovarian
[16] = tested on: K-562 leukemia
[17] = tested on: KM12 colon
[18] = tested on: LOX IMVI melanoma
[19] = tested on: LXFL 529 NSCLC
[20] = tested on: M14 melanoma
[21] = tested on: M19-MEL melanoma
[22] = tested on: MALME-3M melanoma
[23] = tested on: MOLT-4 leukemia
[24] = tested on: NCI-H226 lung
[25] = tested on: NCI-H23 lung
[26] = tested on: NCI-H460 lung
[27] = tested on: OVCAR-3 ovarian
[28] = tested on: OVCAR-4 ovarian
[29] = tested on: OVCAR-5 ovarian
[30] = tested on: OVCAR-8 ovarian
[31] = tested on: RPMI-8226 leukemia
[32] = tested on: RXF 393 renal
[33] = tested on: RXF-631 renal
[34] = tested on: SF-268 CNS
[35] = tested on: SF-295 CNS
[36] = tested on: SK-MEL-28 melanoma
[37] = tested on: SK-MEL-5 melanoma
[38] = tested on: SK-OV-3 ovarian
[39] = tested on: SN12C renal
[40] = tested on: SNB-19 CNS
[41] = tested on: SNB-75 CNS
[42] = tested on: SNB-78 CNS
[43] = tested on: SR leukemia
[44] = tested on: SW-620 colon
[45] = tested on: TK-10 renal
[46] = tested on: U251 CNS
[47] = tested on: UACC-62 melanoma
[48] = tested on: UO-31 renal
[49] = tested on: CAKI-1 renal
[50] = tested on: HCT-116 colon
[51] = tested on: HOP-18 NSCLC
[52] = tested on: HOP-62 NSCLC
[53] = tested on: HOP-92 NSCLC
[54] = tested on: KM20L2 colon
[55] = tested on: NCI-H522 lung
[56] = tested on: SF-539 CNS
[57] = tested on: SK-MEL-2 melanoma
[58] = tested on: UACC-257 melanoma
[59] = tested on: XF 498 CNS
[60] = tested on: BT-549 breast
[61] = tested on: DU-145 prostate
[62] = tested on: HS 578T breast
[63] = tested on: MCF7 breast
[64] = tested on: MDA-MB-231 breast
[65] = tested on: MDA-N
[66] = tested on: PC-3 prostate
[67] = tested on: T-47D breast

O=C1C2c3[nH]c4ccccc4c3[C@@H]3CCCCC3C2C(=O)N1c1ccccc1 (stereo partly drawn)
TGI [1]: 37.5 µM
TGI [2]: 71.9 µM
TGI [3]: > 100 µM
TGI [4]: 81.9 µM
TGI [5]: 80.1 µM
TGI [6]: 33.6 µM
TGI [7]: 92.4 µM
TGI [8]: 58.4 µM
TGI [9]: 35.3 µM
TGI [10]: 37.5 µM
TGI [11]: 36.5 µM
TGI [12]: > 100 µM
TGI [13]: 47.5 µM
TGI [14]: 37 µM
TGI [15]: 74.8 µM
TGI [16]: > 100 µM
TGI [17]: 39.3 µM
TGI [18]: 29.8 µM
TGI [19]: 39.6 µM
TGI [20]: 30 µM
TGI [21]: 34.8 µM
TGI [22]: 38.4 µM
TGI [23]: 62.9 µM
TGI [24]: 42.2 µM
TGI [25]: 39.2 µM
TGI [26]: 31.9 µM
TGI [27]: 30.1 µM
TGI [28]: 75 µM
TGI [29]: 51.8 µM
TGI [30]: 52.9 µM
TGI [31]: 47700 nM
TGI [32]: 32.7 µM
TGI [33]: 34.2 µM
TGI [34]: 62.9 µM
TGI [35]: 43.2 µM
TGI [36]: 33 µM
TGI [37]: 32.1 µM
TGI [38]: 72.5 µM
TGI [39]: 32.4 µM
TGI [40]: > 100 µM
TGI [41]: 71.5 µM
TGI [42]: 72 µM
TGI [43]: 77.8 µM
TGI [44]: 38.8 µM
TGI [45]: 68.7 µM
TGI [46]: 28 µM
TGI [47]: 38.5 µM
TGI [48]: 45 µM

Cc1nc(Nc2ccc([N+](=O)[O-])cc2)sc1C(/C=C/c1ccc(N(C)C)cc1)=N/NC(=O)c1ccccc1
TGI [1]: > 100 µM
TGI [3]: > 100 µM
TGI [4]: > 100 µM
TGI [49]: > 100 µM
TGI [5]: > 100 µM
TGI [6]: > 100 µM
TGI [7]: > 100 µM
TGI [8]: > 100 µM
TGI [10]: > 100 µM
TGI [11]: > 100 µM
TGI [50]: > 100000 nM
TGI [12]: > 100 µM
TGI [13]: > 100 µM
TGI [51]: > 100 µM
TGI [52]: > 100 µM
TGI [53]: 52.7 µM
TGI [14]: > 100 µM
TGI [15]: > 100 µM
TGI [16]: > 100 µM
TGI [17]: > 100 µM
TGI [54]: > 100 µM
TGI [18]: > 100 µM
TGI [19]: > 100 µM
TGI [20]: > 100 µM
TGI [21]: > 100 µM
TGI [22]: > 100 µM
TGI [23]: > 100 µM
TGI [24]: > 100 µM
TGI [25]: > 100 µM
TGI [26]: > 100 µM
TGI [55]: > 100 µM
TGI [27]: > 100 µM
TGI [28]: > 100 µM
TGI [29]: > 100 µM
TGI [30]: > 100 µM
TGI [32]: > 100 µM
TGI [33]: > 100 µM
TGI [34]: > 100 µM
TGI [35]: > 100 µM
TGI [56]: > 100 µM
TGI [57]: > 100 µM
TGI [36]: > 100 µM
TGI [38]: > 100 µM
TGI [39]: > 100 µM
TGI [40]: > 100 µM
TGI [41]: > 100 µM
TGI [42]: > 100 µM
TGI [43]: > 100 µM
TGI [44]: > 100 µM
TGI [45]: > 100 µM
TGI [46]: > 100 µM
TGI [58]: > 100 µM
TGI [47]: 28.5 µM
TGI [48]: > 100 µM
TGI [59]: > 100 µM

O=C1/C(=C/c2ccccc2)CN(C(=O)OCc2ccccc2)C/C1=C\c1ccccc1
TGI [1]: 18.5 µM
TGI [2]: > 31.6 µM
TGI [3]: > 46.4 µM
TGI [4]: 25.7 µM
TGI [60]: 33.2 µM
TGI [49]: > 31.6 µM
TGI [5]: 8.4 µM and 8.56 µM
TGI [6]: 34.1 µM
GI50 [7]: 4.14 µM
TGI [7]: 14.2 µM
GI50 [8]: 4.26 µM
TGI [8]: 21 µM
GI50 [9]: 2620 nM
TGI [9]: 14.3 µM
TGI [61]: > 100 µM
TGI [10]: > 31.6 µM
TGI [11]: 18.3 µM
GI50 [50]: 484 nM
TGI [50]: 1630 nM and 2630 nM
GI50 [12]: 4.01 µM
TGI [12]: 20.8 µM
TGI [13]: 5.43 µM
TGI [52]: 39.9 µM
TGI [53]: > 100 µM
TGI [62]: 10.1 µM
GI50 [14]: 1870 nM
TGI [14]: 6.31 µM and 25.5 µM
TGI [15]: 23.8 µM
GI50 [16]: 1630 nM
TGI [16]: 15.4 µM
GI50 [17]: 2680 nM
TGI [17]: 14.8 µM
TGI [54]: 18.9 µM
GI50 [18]: 1210 nM
TGI [18]: 2.52 µM and 8.88 µM
GI50 [20]: 5.89 µM
TGI [20]: 16.7 µM
GI50 [21]: 2010 nM
TGI [21]: 7 µM and 13.6 µM
TGI [22]: > 46.4 µM
TGI [63]: 37.2 µM
TGI [64]: 50.4 µM
TGI [65]: 13.1 µM
GI50 [23]: 2180 nM
TGI [23]: 7.49 µM and 19 µM
TGI [24]: 35.2 µM
TGI [25]: 32.6 µM
GI50 [26]: 5.47 µM
TGI [26]: > 46.4 µM
TGI [55]: 18.5 µM
TGI [27]: 10 µM
GI50 [28]: 7.9 µM
TGI [28]: 27.4 µM
TGI [29]: 30.8 µM
GI50 [30]: 3.05 µM
TGI [30]: 9.39 µM and 20.3 µM
TGI [66]: 57.7 µM
GI50 [31]: 169 nM and 200 nM
TGI [31]: 737 nM and 647 nM
TGI [32]: 19.8 µM
TGI [33]: > 31.6 µM
TGI [34]: 30.7 µM
GI50 [35]: 3.63 µM
TGI [35]: 26.7 µM
TGI [56]: 30.9 µM
TGI [57]: 44.8 µM
TGI [36]: 32.8 µM
GI50 [37]: 3.44 µM
TGI [37]: 30.7 µM
TGI [38]: 40.5 µM
TGI [39]: 22.7 µM
TGI [40]: > 46.4 µM
TGI [41]: > 31.6 µM
TGI [42]: 25.4 µM
TGI [43]: 12.3 µM
GI50 [44]: 1440 nM
TGI [44]: 3.72 µM and 15.5 µM
TGI [67]: > 100 µM
TGI [45]: > 46.2 µM
TGI [46]: 17.8 µM
GI50 [58]: 9.19 µM
TGI [58]: 28.3 µM
TGI [47]: 20.2 µM
TGI [48]: 24 µM
TGI [59]: > 31.6 µM
